Where two headings read alike, the source gives them in different places.
Key:
[1] = tested on: hiPSC-CMLP microtissues
Description: Cardiomyocyte differentiation. The inventors differentiated cardiomyocytes (CMs) from human pluripotent stem cells; either human embryonic stem cells (hESCs, e.g. line RUES2) or human induced pluripotent stem cells (hiPSCs; Gibco human episomal iPSCs from CD34+ cord blood, ThermoFisher Scientific, NCRM-5 human episomal iPSCs from CD34+ cord blood, NIH Center for Regenerative Medicine, WTC11 GM25256 human episomal iPSCs from dermal fibroblasts, The Gladstone Institutes, UCSF) in high-density monolayer cultures. […] Human pluripotent stem cells were cultured on plates coated with truncated human vitronectin (Life Technologies) in Essential 8 medium (ThermoFisher). […] Medium was changed daily until initiation of differentiation (day 0), when cells were approximately 60-90% confluent. […] C-59 (Tocris) or 1 μM XAV939 (Tocris), all chemical Wnt inhibitors, at day 3. […] Some differentiating cells received 100 ng/ml neuregulin-1β (NRG1) daily on days 5-18 (until use in engineered tissues) and/or in engineered tissues. Some engineered tissues received 100 nM insulin-like growth factor 1 (IGF1) daily and/or 100 ng/ml NRG1 daily in engineered tissues. […] Some experiments used unpurified cells as controls and were matched for duration of culture for experiments. Cells undergoing metabolic-based lactate purification were assessed for density and beating visually, and left in the wells of the high-density monolayer cultures for lactate purification if density was high and beating was uniform across large areas of the wells. Cells not meeting these requirements for density and beating were replated at high density, 5-6×10^6 cells/cm^2 on Matrigel-coated 6 well plates in RPMI+B27 medium after 10-20 days of differentiation. All cells undergoing lactate purification were not fed for 4 days as a starvation period to encourage a switch in metabolism from glycolysis to oxidative phosphorylation in the cardiomyocytes, which are capable of this type of metabolism, while non-cardiomyocytes have a lower ability to switch the metabolic phenotype and therefore die, resulting in more pure populations of cardiomyocytes. […] Lactate purified cells were fed with RPMI+B27 until robust beating returned or appeared. Cardiac purity is assessed by flow cytometry analysis.
Fabrication of microtissue mold hydrogels and 3D microtissue culture. Scaffold-free three-dimensional microtissues (spheroid in shape, also called spheroids and/or organoids) are generated using non-adhesive agarose gels with cylindrical microwells with hemispherical bottoms to guide self-assembly. Sterilized 2% (wt/vol) agarose is pipetted into molds designed for 24-well plates with 800-μm-diameter rounded pegs (Microtissues, Providence, RI, USA). After being cooled to room temperature (˜5 minutes), the agarose gels are separated from the molds and transferred to single wells of 24-well plates. For equilibration, 1 mL medium is added to each well. Hydrogels are equilibrated at least one hour or overnight at 37° C. in a humidified incubator with 5% CO2. […]
Optical mapping and automated action potential duration analysis. […] Fluorescence images were filtered using nonlinear bilateral filter (spatial filter: 5×5 window, temporal filter: 21 point window) to preserve action potential upstrokes from blurring. Typically, four microtissues were recorded simultaneously/scan at this magnification.

[2] = tested on: rodents; details: greater sensitivity in female rats than male rats; increased with isoproterenol stimulation; cited from earlier work
[3] = tested on: hiPSC-CM microtissues; details: human
Description: Fabrication of microtissue mold hydrogels and 3D microtissue culture. Scaffold-free three-dimensional microtissues (spheroid in shape, also called spheroids and/or organoids) are generated using non-adhesive agarose gels with cylindrical microwells with hemispherical bottoms to guide self-assembly. Sterilized 2% (wt/vol) agarose is pipetted into molds designed for 24-well plates with 800-μm-diameter rounded pegs (Microtissues, Providence, RI, USA). After being cooled to room temperature (˜5 minutes), the agarose gels are separated from the molds and transferred to single wells of 24-well plates. For equilibration, 1 mL medium is added to each well. Hydrogels are equilibrated at least one hour or overnight at 37° C. in a humidified incubator with 5% CO2. […] Medium is then added to each well (5 ml), and cells are cultured for 6-8 days with electrical field stimulation with a 1 Hz, 10.0 V, 4.0 ms duration bipolar pulse train for the full three-dimensional culture period (C-Pace EP, IonOptix).
Optical mapping and automated action potential duration analysis. The inventors used an Olympus MVX10 microscope to image 1.2×1.2-mm^2 regions. […] Fluorescence images were filtered using nonlinear bilateral filter (spatial filter: 5×5 window, temporal filter: 21 point window) to preserve action potential upstrokes from blurring. Typically, four microtissues were recorded simultaneously/scan at this magnification. […] The pixels with action potentials were identified from Fast Fourier transformation (FFT) of fluorescence signals. After appropriate thresholding and image segmentation, the region of each microtissue was grouped and the fluorescence signals from the pixels in the same microtissue were average and used for action potential analysis.
Validation and screening of toxicants for arrhythmogenic risk. […] Concentrations are selected to span human exposure levels or blood serum levels and quantify dose-dependent changes over a wide range (with a goal of more than 10,000× change in concentration and at least 4-6 doses). […]

[4] = Clinical exposure of ranolazine (FDA documentation); type: in vivo, human; details: dose of 1000 mg b.i.d., bracketed conversion
[5] = tested on: late ICa; details: cited from earlier work
[6] = cited from earlier work
[7] = tested on: peak ICa; details: cited from earlier work
[8] = tested on: INCX; details: cited from earlier work
[9] = tested on: late sodium current (INa,late); details: read-out: IC50, late sodium current (INa,late) block; cited from earlier work
[10] = tested on: human cardiac fibroblasts; test: Biochemical myofibroblast activation of human cardiac fibroblasts, αSMA immunofluorescence normalized by vimentin; type: cell-based; details: 10 ng/ml TGF-β1 for forty-eight hours; passage 4 hCFs
Experimental: The inventors next assessed the ability of human cardiac fibroblasts to be further activated via biochemical stimulation by treating passage 4 human cardiac fibroblasts with 10 ng/ml TGF-β1 for forty-eight hours. Cells were fixed and fluorescently labeled for αSMA and vimentin.

## CC(C)(c1ccc(O)cc1)c1ccc(O)cc1 [BPA, bisphenol-A]
[1]
  APDtri (APD80-APD30): shorter
  concentration that shifts action potential duration measurements: one
  excitability, pacing at 0.5 Hz: fails to evoke action potentials
[1]; human, 20 min
  APD30 and APD50 versus APD80: APD30 and APD50 were shortened more than APD80
[2]
  concentration promoting arrhythmias: 0.001 µM

## Cn1c(=O)c2c(ncn2C)n(C)c1=O [caffeine]
[3]; 5 mM
  action potential duration: 90.5 ± 22.3 ms

## CC(C)NCC(O)c1ccc(O)c(O)c1 (stereo not drawn) [isoproterenol]
[3]; 100 nM
  action potential duration: 120.1±10.5
  average reduction of APD80: 45 ms

## COc1ccccc1OCC(O)CN1CCN(CC(=O)Nc2c(C)cccc2C)CC1 (stereo not drawn) [ranolazine]
[4]; read-out: mean steady-state Cmax [in blood serum]
  Cmax: 6 µM
[4]; human, serum, read-out: 95% of Cmax values
  Cmax: 0.98 to 14.2 µM
[5]
  IC50: 50 µM
[6]; dose of 1000 mg b.i.d.
  mean steady-state Cmax [in blood serum]: 2569 ng/mL
[6]; human, in vivo
  therapeutic concentration: 1 to 10 µM
[1]
  APD changes over dose-response: moderate APD changes within a safety criteria of QT prolongation
[7]
  IC50: 296 µM
[8]
  IC50: 91 µM
[9]
  IC50: 5.9 µM

## TGF-β1: growth factor used for biochemical activation of human cardiac fibroblasts to a myofibroblast-like state
[10]
  increase in normalized αSMA fluorescence compared to control: 1.2 fold
